The record followed here is PMC10023787, “Trio-pharmacophore DNA-encoded chemical library for simultaneous selection of fragments and linkers” (Nature Communications, 2023).

Each structure is given as a SMILES string.

This experiment concerns the target T1, bovine carbonic anhydrase II (CAII) (Bos taurus, UniProt P00921).
T1 construct: purchased Sigma-Aldrich C7749
The experiment is described as follows: Carbonic anhydrase II inhibition assay (esterase activity on p-nitrophenyl acetate). Type of experiment: biochemical. The note with it: for remaining activity at 0.0001024 µM: 0.1024 nM compound; for remaining activity at 0.0001024 µM / remaining activity at 0.000512 µM / remaining activity at 0.00256 µM / remaining activity at 0.064 µM / remaining activity at 0.32 µM / remaining activity at 1.6 µM / remaining activity at 8 µM / remaining activity at 40 µM / remaining activity at 200 µM: source data of Fig. 2c, read-out: Normalized CA II Activity (Mean); for remaining activity at 0.000512 µM: 0.512 nM compound; for remaining activity at 0.00256 µM: 2.56 nM compound; for remaining activity at 0.064 µM: 64 nM compound; for remaining activity at 0.32 µM: 320 nM compound; for remaining activity at 1.6 µM: 1600 nM compound; for remaining activity at 8 µM: 8000 nM compound; for remaining activity at 40 µM: 40000 nM compound; for remaining activity at 200 µM: 200000 nM compound; for IC50: mean ± SE, three independent measurements, n.d: not detected. The procedure:
CAII inhibition assay was performed to measure the inhibitory effect of re-synthesized CBS-conjugates. The esterase activity of CAII with a chromogenic substrate p-nitrophenyl acetate (pNPA) was measured. The rates of hydrolysis were determined by an increase of absorption at 410 nm after incubating different compounds with CAII. Re-synthesized compounds were diluted in a serial spanning mM to μM concentrations. […] 5 µl of pNPA (50 mM in 20% DMSO) was added to the plate right before the measurement. The absorption was measured at 37 °C each 10 sec for 15 min using a Beckman Coulter’s Paradigm Detection Platform (Brea, USA). The initial Vmax was obtained from the increase of absorption and the Vmax was plotted against the inhibitor concentrations and logistic fitting was performed to obtain IC50 values using Origin 2019b (OriginLab) software.

T1 sequence (P00921 whole entry): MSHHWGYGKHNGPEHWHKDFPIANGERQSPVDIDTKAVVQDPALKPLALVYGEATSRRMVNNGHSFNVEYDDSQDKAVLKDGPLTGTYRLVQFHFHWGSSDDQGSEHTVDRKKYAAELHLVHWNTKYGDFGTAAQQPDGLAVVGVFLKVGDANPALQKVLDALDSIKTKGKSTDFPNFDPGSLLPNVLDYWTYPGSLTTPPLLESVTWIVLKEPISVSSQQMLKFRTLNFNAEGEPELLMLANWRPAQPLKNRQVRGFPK

As for `NS(=O)(=O)c1ccc(NC(=O)c2ccc(-n3cc(CCC(=O)NCCNC(=O)/C=C/c4ccc(-c5ccccc5C(F)(F)F)o4)nn3)cc2)cc1` [Compound C-4], the remaining activity at 0.0001024 µM is 96.8%, the remaining activity at 0.000512 µM was 89%, the remaining activity at 0.00256 µM came to 89.3% and the remaining activity at 0.064 µM came to 89.8%. The remaining activity at 0.32 µM came to 90.3%, the remaining activity at 1.6 µM was found to be 65%, the remaining activity at 8 µM is 42.3% and the remaining activity at 40 µM was 33.8%. In addition, the remaining activity at 200 µM turned out to be 9.19%.

Turning to `NS(=O)(=O)c1ccc(NC(=O)COCC(=O)NCCNC(=O)/C=C/c2ccc(-c3ccccc3C(F)(F)F)o2)cc1` [Compound C-5], the remaining activity at 0.0001024 µM is 101%, the remaining activity at 0.000512 µM was determined as 100%, the remaining activity at 0.00256 µM was determined as 96.7% and the remaining activity at 0.064 µM came out at 90.2%. Further, the remaining activity at 0.32 µM was found to be 78.3%, the remaining activity at 1.6 µM is 56.6%, the remaining activity at 8 µM worked out at 33.3% and the remaining activity at 40 µM came out at 19.1%. Also, the remaining activity at 200 µM is 11.8% and the IC50 was 2020 ± 310 nM.

In the case of `NS(=O)(=O)c1ccc(NC(=O)/C=C/c2ccc(-c3ccccc3C(F)(F)F)o2)cc1` [Compound C-0], the remaining activity at 0.0001024 µM came out at 93.3%, the remaining activity at 0.000512 µM was determined as 94%, the remaining activity at 0.00256 µM turned out to be 93.6% and the remaining activity at 0.064 µM stood at 84.9%. The remaining activity at 0.32 µM is 65.6%, the remaining activity at 1.6 µM worked out at 45.7%, the remaining activity at 8 µM turned out to be 38.2% and the remaining activity at 200 µM turned out to be 20.9%. Further, the midpoint of inhibition, the IC50, lay at 830 nM.

Regarding `NS(=O)(=O)c1ccc(NC(=O)COc2ccccc2OCC(=O)NCCNC(=O)/C=C/c2ccc(-c3ccccc3C(F)(F)F)o2)cc1` [Compound C-2], the remaining activity at 0.0001024 µM was found to be 91.3%, the remaining activity at 0.000512 µM was 93.6%, the remaining activity at 0.00256 µM worked out at 96.1% and the remaining activity at 0.064 µM came to 83%. In addition, the remaining activity at 0.32 µM worked out at 61.4%, the remaining activity at 1.6 µM stood at 43.3%, the remaining activity at 8 µM came out at 25.6% and the remaining activity at 40 µM is 15%. Also, the remaining activity at 200 µM stood at 14.3% and inhibition was half-maximal at 670 nM (IC50). Moreover, the “improvement in the IC50 value” (compared with sulfanilamide) is recorded as 20 fold.
